Experimental data taken from patent US20070224194A1, “Methods for Inhibiting Angiogenesis and/or Lymphangiogenesis” (LUDWIG INSTITUTE FOR CANCER RESEARCH, priority 2004, published 2007).
The star is where a group is joined. Decanoyl = CCCCCCCCCC(=O)*; CH2Cl = ClC*

How the values were obtained:
Furin = Furin (Homo sapiens, UniProt P09958); settings: cited from earlier work
[1] = test system: VEGF-D propeptide processing; experiment: VEGF-D processing by Balbc/3T3 cells that naturally produce VEGF-D; assay type: cell-based; settings: 100 μM
Source text: Finally, the effect of dec-RVKR-CMK on VEGF-D processing by Balbc/3T3 cells that naturally produce this growth factor (i.e., in cells that had not been transfected so as to express VEGF-D) was examined.

[2] = test system: BaF3 cells expressing the VEGFR-2/EpoR chimeric receptor; experiment: BaF3 bioassay, VEGFR-2/EpoR chimeric receptor, [3H]thymidine incorporation; assay type: cell-based; settings: paper example in present tense
Source text: In order to test if a furin or broad-range PC inhibitor can block the biological effects of VEGF-D, mammalian cells are employed that proteolytically process VEGF-D, such as 293EBNA or Capan-1 pancreatic carcinoma cells. Derivatives of these cells harboring an expression construct for full-length VEGF-D are transfected with the shRNA construct for furin (as described here) or treated with a broad-range PC inhibitor such as decanoyl-Arg-Val-Lys-Arg-chloromethylketone (see, PCT WO 2005/112971 A1, the disclosure of which is incorporated herein by reference in its entirety). The inhibition of VEGF-D processing by these agents is confirmed by immunoprecipitation/Western blotting of the conditioned cell culture media using antibody that binds the VHD of VEGF-D. The conditioned cell culture media from cells treated with the inhibitors (and from cells in which these agents are omitted, i.e. “mock” treatments) are used for incubations with BaF3 pre-B cells expressing chimeric receptors consisting of the extracellular domains of VEGFR-2 or VEGFR-3 and the transmembrane and cytoplasmic domains of the erythropoietin receptor (EpoR) (Stacker et al., J. Biol. Chem., 274:34884-34892, 1999; Achen et al., Eur. J. Biochem., 267:2505-2515, 2000). […] The proliferation of the cells in response to the conditioned media containing VEGF-D is monitored by incorporation of [3H]thymidine into DNA. […]

[3] = test system: proteolytic processing of VEGF-DΔN; experiment: Processing of VEGF-DΔN by 293EBNA cells (cleavage of C-terminal propeptide from VHD); assay type: cell-based, human; settings: for band representing mature VHD from VEGF-DΔN: 1, 10, 50, 100 μM, 18 hours
Source text: An expression plasmid encoding a truncated derivative of human VEGF-D consisting of the N-terminal propeptide and the VHD tagged at the carboxyl terminus with the FLAG epitope (referred to as VEGF-DΔC) (FIG. 3, top panel) has been previously described (Stacker et al, J. Biol. Chem. 274 32127-32136, 1999). The VEGF-DΔC protein construct facilitates study of cleavage of the N-terminal propeptide from the VHD. The conditioned media of 293EBNA cells stably transfected with the VEGF-DΔC expression plasmid contain a mixture of VEGF-D proteins, including unprocessed VEGF-DΔC, and the proteolytically processed VHD. A second cell line was generated by stable transfection of 293EBNA cells with an expression construct encoding VEGF-DΔN, a truncated derivative of human VEGF-D consisting of the VHD tagged at the amino terminus with the FLAG epitope and C-terminal propeptide (FIG. 3, top panel). This protein construct facilitates study of cleavage of the C-terminal propeptide from the VHD. The conditioned media of 293EBNA cells expressing VEGF-DΔN contain a mixture of VEGF-D proteins, consisting of unprocessed VEGF-DΔN, and the proteolytically processed VHD. The VEGF-DΔN expression plasmid was constructed by replacing the 2-kb EcoRV fragment of the pAPEX-3 construct for full-length VEGF-D with the 2-kb EcoRV fragment of the pAPEX-3 construct for VEGF-DΔNΔC-FLAG (Stacker et al, J. Biol. Chem. 274 32127-32136, 1999).
The 293EBNA cell lines expressing VEGF-D-FULL-FLAG, VEGF-DΔC or VEGF-DΔN were seeded into 24-well plates (8×10^4 cells/well), in medium supplemented with Dec-RVKR-CMK dissolved in methanol, to a final concentration of 0, 1, 10, 50 or 100 μM. After 18 hours incubation (37° C., 10% CO2 in an humidified incubator), conditioned cell culture media were removed and clarified by centrifugation (5 minutes, 250×g, 4° C.). […] The precipitated VEGF-D species were then analysed by reducing SDS-PAGE and Western blotting using a biotinylated antibody against the VHD of human VEGF-D (R&D Systems), and Streptavidin-horse radish peroxidase conjugate (Zymed).

Chain of Furin (P09958 108-794, species assumed): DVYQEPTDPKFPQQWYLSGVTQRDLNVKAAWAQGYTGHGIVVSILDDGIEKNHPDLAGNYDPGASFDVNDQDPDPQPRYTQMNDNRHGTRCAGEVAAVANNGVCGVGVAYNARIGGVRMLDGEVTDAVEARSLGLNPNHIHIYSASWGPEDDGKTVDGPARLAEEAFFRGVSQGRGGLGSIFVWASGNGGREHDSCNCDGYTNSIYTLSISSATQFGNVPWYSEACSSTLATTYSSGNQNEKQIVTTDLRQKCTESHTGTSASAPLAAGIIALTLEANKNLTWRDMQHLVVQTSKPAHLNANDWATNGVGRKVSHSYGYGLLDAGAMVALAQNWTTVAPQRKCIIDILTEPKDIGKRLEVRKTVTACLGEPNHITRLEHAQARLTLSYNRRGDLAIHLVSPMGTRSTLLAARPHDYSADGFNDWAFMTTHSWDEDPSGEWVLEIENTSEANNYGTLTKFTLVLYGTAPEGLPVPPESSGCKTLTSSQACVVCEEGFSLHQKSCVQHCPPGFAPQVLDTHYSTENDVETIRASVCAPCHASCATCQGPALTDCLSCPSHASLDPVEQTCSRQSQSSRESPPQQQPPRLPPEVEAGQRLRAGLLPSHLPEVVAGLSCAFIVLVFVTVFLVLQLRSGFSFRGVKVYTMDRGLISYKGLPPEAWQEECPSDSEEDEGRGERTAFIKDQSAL

Substance: Decanoyl-Arg-Val-Lys-Arg-chloromethylketone (Decanoyl-RVKR-CH2Cl) [Dec-RVKR-CMK]
- inhibition of furin (Furin): potently inhibited
- VEGF-D propeptide processing [1]: almost completely blocked
- proliferation of BaF3 VEGFR-2/EpoR cells induced by conditioned media of treated VEGF-D-expressing cells [2]: do not induce significant proliferation
- proteolytic processing of VEGF-DΔN ([3]; 100 μM): completely blocked
- band representing mature VHD from VEGF-DΔN [3]: reduced in abundance in a dose dependent manner
- band representing mature VHD from VEGF-DΔN ([3]; listed as dec-RVKR-CMK): blocked each of these processing events in a dose-dependent fashion
